“And” between values parts separate entries of the source, which are not always exact repeats. Equal entries are not always repeated.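 Tested at 5 concentrations; 48 h exposure; 96-well plates; endpoints linearly interpolated, else capped at highest concentration. GI50 is the concentration that inhibits growth by half. The concentration for full growth arrest is given as TGI.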
Experiments:
Assay in all cases: DTP human tumour cell line panel, 48 h
HOP-18 NSCLC = test system: HOP-18 NSCLC
KM20L2 colon = test system: KM20L2 colon
DMS 273 small cell lung = test system: DMS 273 small cell lung
RXF-631 renal = test system: RXF-631 renal
DMS 114 small cell lung = test system: DMS 114 small cell lung
SNB-78 CNS = test system: SNB-78 CNS
MDA-MB-231 breast = test system: MDA-MB-231 breast
MDA-N = test system: MDA-N

`COC1=CC(=O)C(O)=C(CC2(C)C(C)CCC3(C)C2CCCC3(C)C)C1=O` (stereo unspecified) showed a TGI (HOP-18 NSCLC) of 13 µM, a TGI (KM20L2 colon) of 13.2 µM and a TGI (DMS 273 small cell lung) of 18.3 µM. For the same molecule, the TGI (RXF-631 renal) was > 100 µM, the TGI (DMS 114 small cell lung) was 8.99 µM and the TGI (SNB-78 CNS) was > 100 µM.

For `C/C(=C\c1ccccc1)C(O)C(=O)c1nc2ccc(Cl)cc2[nH]c1=O` (stereo unspecified), the TGI (KM20L2 colon) was > 100 µM, the TGI (DMS 273 small cell lung) was > 100 µM and the TGI (DMS 114 small cell lung) was > 100 µM. The TGI (SNB-78 CNS) was > 100 µM.

`OCc1ccc(N2CCc3ccc(F)cc3C2)cc1Cl` showed a GI50 (MDA-MB-231 breast) of 11.7 µM and a TGI (MDA-MB-231 breast) of 24.9 µM.

In the case of `OC[C@H]1C[C@](O)(c2ccc(F)cc2)[C@@H](c2ccc(F)cc2)O1`, the GI50 (MDA-MB-231 breast) is reported as > 100 µM and the TGI (MDA-MB-231 breast) is reported as > 100 µM.

In the case of `CCN1CCN(CC(=O)Nc2nc3ccc(NCc4ccc(Br)cc4)cc3s2)CC1`, the GI50 (MDA-MB-231 breast) is reported as 1.89 µM and the TGI (MDA-MB-231 breast) is reported as 4.15 µM.

For `O=C1[C@H](Cc2ccc(O)cc2)N2C(=O)CCN(C(=O)NCc3ccccc3)[C@H]2CN1Cc1cccc2ccccc12`, the GI50 (MDA-MB-231 breast) was 0.605 µM and the TGI (MDA-MB-231 breast) was 3.6 µM.

Molecule `COc1ccc(Cn2c(Br)c3c(c2-c2cc(OC)c(OC)c(OC)c2)CCc2sc(N)nc2-3)cc1` has a GI50 (MDA-MB-231 breast) of 1.92 µM and a TGI (MDA-MB-231 breast) of 7.1 µM.

`CC[C@]12C=CCN3CC[C@@]4(c5ccc(OC)cc5N(C)[C@H]4[C@@](O)(C(=O)OC)[C@@H]1OC(=O)CCCN1CCN(CCCC(=O)O[C@@H]4[C@]5(CC)C=CCN6CC[C@@]7(c8ccc(OC)cc8N(C)[C@H]7[C@@]4(O)C(=O)OC)[C@@H]65)CC1)[C@@H]32` gave a GI50 (MDA-MB-231 breast) of 0.665 µM and a TGI (MDA-MB-231 breast) of 2.02 µM.

For `CNS(=O)(=O)Nc1nccc(Cc2c(C)c3ccc(Oc4ncccn4)cc3oc2=O)c1F`, the GI50 (MDA-MB-231 breast) was 0.549 µM and 0.313 µM and the TGI (MDA-MB-231 breast) was > 100 µM.

In the case of `CC1(C)CC(=O)C(C(=O)Nc2cccs2)=C(O)C1`, the TGI (HOP-18 NSCLC) is reported as > 100 µM, the TGI (KM20L2 colon) is reported as > 100 µM and the TGI (DMS 273 small cell lung) is reported as 82 µM. For the same molecule, the TGI (RXF-631 renal) was > 100 µM and the TGI (SNB-78 CNS) was > 100 µM.

`C/C(=C\c1csc(C)n1)[C@@H]1C[C@@H]2O[C@]2(C)CCC[C@H](C)[C@H](O)[C@@H](C)C(=O)C(C)(C)[C@@H](O)CC(=O)N1` was tested, and the GI50 (MDA-MB-231 breast) was 0.000312 µM and the TGI (MDA-MB-231 breast) was 0.000479 µM.

`CN(C)c1ccc(/C=N/N=C(\C#N)[S][Sn]([Cl])([c]2ccccc2)[c]2ccccc2)cc1` showed a GI50 (MDA-MB-231 breast) of 1.54 µM and a TGI (MDA-MB-231 breast) of 3.19 µM.

With `N#CC1=C(N)Oc2c(ccc3ccccc23)C1c1cc2ccccc2n2nnnc12` (stereo unspecified) the GI50 (MDA-MB-231 breast) was 0.976 µM and the TGI (MDA-MB-231 breast) was > 100 µM.

With `Oc1c(Br)cc(Cl)cc1C(c1cc(Cl)cc(Br)c1O)C(Cl)(Cl)Cl` the GI50 (MDA-MB-231 breast) was 1.97 µM and the TGI (MDA-MB-231 breast) was 5.98 µM.

`CCCCCNC(=O)CCCCCCCCCCCNC(=O)CCCCCCCCCCN1C=CC(=CC=C2C=CC(=O)C=C2)C=C1` was tested, and the TGI (KM20L2 colon) was > 100 µM, the TGI (DMS 273 small cell lung) was > 100 µM and the TGI (RXF-631 renal) was > 100 µM. The TGI (DMS 114 small cell lung) was > 100 µM and the TGI (SNB-78 CNS) was 96.9 µM.

`COc1ccc2cc3n(c(=O)c2c1)CCc1c-3cc(OC)c(OC)c1OC` was tested, and the TGI (HOP-18 NSCLC) was > 100 µM, the TGI (KM20L2 colon) was > 100 µM and the TGI (DMS 273 small cell lung) was > 100 µM. For the same molecule, the TGI (DMS 114 small cell lung) was > 100 µM and the TGI (SNB-78 CNS) was > 100 µM.

For `COc1ccc(C(C)Nc2cc(OC)c(OC)c(OC)c2)cc1` (stereo unspecified), the TGI (HOP-18 NSCLC) was > 100 µM, the TGI (KM20L2 colon) was 7.3 µM and the TGI (DMS 273 small cell lung) was > 100 µM. The TGI (SNB-78 CNS) was 17.6 µM.

In the case of `O=C1NC(=O)N(S(=O)(=O)c2cc(C(=O)Nc3ccc(Cl)cc3)c(Cl)cc2S)S(=O)(=O)N1`, the GI50 (MDA-MB-231 breast) is reported as 25.2 µM and the TGI (MDA-MB-231 breast) is reported as 74.5 µM.

For `Cn1cc(-c2ccc3c(c2)ncn3-c2cc(NS(=O)(=O)C3CC3)cc(-c3ccc(F)cc3F)c2)cn1`, the GI50 (MDA-MB-231 breast) was 5.61 µM and the TGI (MDA-MB-231 breast) was > 100 µM.

`Cc1cccc(Oc2ccc(Nc3ncnc4ccc(NC(=O)CN(C)C)cc34)cc2Cl)c1` showed a GI50 (MDA-MB-231 breast) of 1.72 µM and a TGI (MDA-MB-231 breast) of 3.57 µM.

For `O=C1c2ccccc2C2(O)N(c3ccccc3)C(=S)N(c3ccccc3)C12O` (stereo unspecified), the TGI (HOP-18 NSCLC) was > 100 µM, the TGI (KM20L2 colon) was > 100 µM and the TGI (DMS 273 small cell lung) was > 100 µM. The TGI (RXF-631 renal) was > 100 µM, the TGI (DMS 114 small cell lung) was > 100 µM and the TGI (SNB-78 CNS) was > 100 µM.

For `Nc1cc(C(F)(F)F)c(-c2nc(N3CCOCC3)nc(N3CCOCC3)n2)cn1`, the GI50 (MDA-MB-231 breast) was 0.703 µM and the TGI (MDA-MB-231 breast) was 40.6 µM.

For `CN(C)CCNC(=O)c1cccc2c1nc(-c1cccnc1)c1ccccc12`, the TGI (HOP-18 NSCLC) was 64 µM, the TGI (DMS 273 small cell lung) was 14.2 µM and the TGI (RXF-631 renal) was 16.7 µM. It also gave a TGI (DMS 114 small cell lung) of 18.8 µM and a TGI (SNB-78 CNS) of 26.3 µM.

With `COc1ccc(-n2c(=O)c3ccccc3n(Cc3ccc(C(=O)NO)cc3)c2=O)cc1` the GI50 (MDA-MB-231 breast) was 3.06 µM and the TGI (MDA-MB-231 breast) was 8.63 µM.

In the case of `O=c1c2cc(Br)ccc2nc(CNc2ccccc2)n1-c1ccccc1`, the TGI (HOP-18 NSCLC) is reported as > 53.3 µM, the TGI (KM20L2 colon) is reported as > 100 µM and the TGI (DMS 273 small cell lung) is reported as > 100 µM. The TGI (DMS 114 small cell lung) was 25.6 µM and the TGI (SNB-78 CNS) was 57.9 µM.

With `CC1=C(C(=O)Nc2ccc3[nH]ncc3c2)C(c2ccc(F)cc2)N=C(c2ccc(C(F)(F)F)nc2)N1` (stereo unspecified) the GI50 (MDA-MB-231 breast) was 10.1 µM and the TGI (MDA-MB-231 breast) was > 25 µM.

With `CN1S(=O)(=O)N(C)P12(N=P(CP(=NP13(N(C)S(=O)(=O)N1C)N(C)S(=O)(=O)N3C)(c1ccccc1)c1ccccc1)(c1ccccc1)c1ccccc1)N(C)S(=O)(=O)N2C` the TGI (HOP-18 NSCLC) was > 100 µM, the TGI (KM20L2 colon) was > 100 µM and the TGI (DMS 273 small cell lung) was > 100 µM. The TGI (RXF-631 renal) was > 100 µM, the TGI (DMS 114 small cell lung) was > 100 µM and the TGI (SNB-78 CNS) was > 100 µM.

Molecule `CCCCCCCCCCN=C(N)c1ccc(N2CCN(c3ccc(C(N)=NCCCCCCCCCC)cc3)CC2)cc1` has a GI50 (MDA-MB-231 breast) of 2.95 µM and a TGI (MDA-MB-231 breast) of 17.9 µM.

In the case of `CC(C)(C)C1CC[C@H]2c3c([nH]c4ccccc34)[C@H]3C(=O)N(c4ccc(F)cc4)C(=O)[C@H]3[C@H]2C1` (stereo partly specified), the TGI (HOP-18 NSCLC) is reported as 34.4 µM, the TGI (KM20L2 colon) is reported as 46.5 µM and the TGI (DMS 273 small cell lung) is reported as 33.3 µM. The TGI (DMS 114 small cell lung) was 38 µM and the TGI (SNB-78 CNS) was 36.8 µM.

For `O=C1c2ccccc2N1C(=O)c1ccccc1[N+](=O)[O-]`, the TGI (MDA-N) was > 100 µM.

`N#CC1(CCCCl)CCCCC1` was tested, and the TGI (HOP-18 NSCLC) was > 100 µM, the TGI (KM20L2 colon) was > 100 µM and the TGI (DMS 273 small cell lung) was > 100 µM. The TGI (RXF-631 renal) was > 100 µM, the TGI (DMS 114 small cell lung) was > 100 µM and the TGI (SNB-78 CNS) was > 100 µM.

Work on `O=S(=O)(Nc1ccccc1)c1ccc(C2CC3(Cl)C(Cl)=C(Cl)C2(Cl)C3(Cl)Cl)cc1` (stereo unspecified) yielded a GI50 (MDA-MB-231 breast) of 3.44 µM and a TGI (MDA-MB-231 breast) of 11.3 µM.

`CC1(C)CC2=NO[Se]3=C2C(=NO3)C1` gave a TGI (MDA-N) of 4.22 µM and a TGI (MDA-MB-231 breast) of 16.4 µM.

`CC(C)CCCC(C)C1CCC2C3CC([N+](=O)[O-])=C4CC(O)CCC4(C)C3CCC12C` (stereo unspecified) gave a TGI (KM20L2 colon) of 34.7 µM, a TGI (DMS 273 small cell lung) of 27.2 µM and a TGI (DMS 114 small cell lung) of 45.7 µM.

For `O=S(=O)(O)C(c1ccccc1)C(O)c1ccccc1` (stereo unspecified), the TGI (MDA-N) was > 100 µM and the TGI (MDA-MB-231 breast) was > 100 µM.

`C#CCCCCCC(=O)N[C@H]1C=C[C@@H]2/C=C(C)/C=C/[C@@H](C)[C@H]([C@H](C)[C@H](O)[C@@H](C)NC(C)=O)OC(=O)/C=C/C=C(C)\C=C\[C@]2(C)C1` was tested, and the GI50 (MDA-MB-231 breast) was < 0.004 µM and the TGI (MDA-MB-231 breast) was < 0.004 µM.

For `CCOC(=O)C1C(NC(N)=O)N(Cc2ccccc2)C(=O)N1Cc1ccccc1` (stereo unspecified), the TGI (HOP-18 NSCLC) was > 100 µM, the TGI (KM20L2 colon) was > 100 µM and the TGI (DMS 273 small cell lung) was > 100 µM. For the same molecule, the TGI (RXF-631 renal) was > 100 µM, the TGI (DMS 114 small cell lung) was > 100 µM and the TGI (SNB-78 CNS) was 29.2 µM.
